The target in test [1] is T1, Iodotyrosine deiodinase 1 [1-1,32-289] (Homo sapiens, UniProt Q6PHW0).
T1 construct: 1-1,32-289
T1 sequence (Q6PHW0 whole entry): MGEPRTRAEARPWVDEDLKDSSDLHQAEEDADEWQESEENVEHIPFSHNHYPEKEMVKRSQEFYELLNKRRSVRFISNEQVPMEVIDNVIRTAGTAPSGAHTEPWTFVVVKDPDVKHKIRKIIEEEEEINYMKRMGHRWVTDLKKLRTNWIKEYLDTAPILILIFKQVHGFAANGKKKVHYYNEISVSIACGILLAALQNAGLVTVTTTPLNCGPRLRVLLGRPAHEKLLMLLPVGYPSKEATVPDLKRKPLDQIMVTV
The test can be described thus: IYD Binding Assay. Here is the method: (§1) Dissociation constants (Kd) for the ligands of IYD were determined by their ability to quench the fluorescence of the oxidized FMN (FMNox) (λex 450 nm, λem 523 nm) in the active site of IYD as previously described [Hu et al., J. Biol. Chem., 290:590-600; McTamney et al., J. Am. Chem. Soc., 131:14212-14213].

In test [2] the target is T2, Iodotyrosine deiodinase [1-228] (Haliscomenobacter hydrossis, UniProt F4KU78).
T2 construct: 1-228
T2 sequence (F4KU78 whole entry): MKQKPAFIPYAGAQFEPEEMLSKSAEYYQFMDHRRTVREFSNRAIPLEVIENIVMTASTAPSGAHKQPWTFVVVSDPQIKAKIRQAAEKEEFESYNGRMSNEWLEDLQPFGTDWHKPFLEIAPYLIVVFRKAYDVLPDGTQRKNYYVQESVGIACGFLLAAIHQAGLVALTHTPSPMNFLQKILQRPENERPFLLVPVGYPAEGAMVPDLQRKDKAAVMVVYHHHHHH
Kind of test: IYD Binding Assay. Here is the method: as §1

Structures are written as SMILES.

In general, Kd refers to the concentration at which binding is half-saturated. The low end stands for higher affinity, the high end for lower affinity. Consider `N[C@@H](Cc1ccc(O)c(I)c1)C(=O)O`, for which the dissociation constant Kd was 0.09 µM in test [1] and 8.2 µM in test [2].
In the same order, the values of `Oc1ccccc1I` [2-Iodophenol (2IP)] are 1410 µM and 67 µM.
Take `Nc1ccc(O)c(I)c1` [4-Amino-2-iodophenol (4A2IP)]: in test [2], the equilibrium dissociation constant (Kd) came to 96 µM. This counts as double-digit micromolar.
As for `N#Cc1ccc(O)c(I)c1` [4-Cyano-2-iodophenol (2IPCN)], the dissociation constant Kd in test [2] is 1.44 µM.
Consider `O=C(O)c1ccc(O)c(I)c1` [4-Hydroxy-3-iodobenzoic acid (2IPCOOH)], for which, in test [2], the Kd came out at 24.1 µM.

The record behind these values is BindingDB's records for doi:10.1021/acs.biochem.6b01308 (Johns Hopkins University, 2017).
